Source: US9926529B2, “Derivation of neural stem cells and dopaminergic neurons from human pluripotent stem cells” (International Stem Cell Corporation, priority 2012, dated 2018)
Where two headings read alike, the source gives them in different places.

Columns and labels:
[1] = system: hPSC-NSCs; experiment: Percentage of TH positive cells produced by chemical treatment; format: cell-based, human; conditions: chemical treatment 2.5 μM for two weeks
Experimental: (§1) The method specifically involved treating both hESC-H9-NSCs (Invitrogen) and hPSC-NSCs with Purmorphamine (2 μM) and FGF8 (100 ng/mL) in NB medium [NeuroBasal medium, 1× GlutaMAX, 1× N2/B27 Supplement (Invitrogen)] for 7 days. After 7 days of Purmorphamine and FGF8 treatment, the NSCs were dissociated with Accutase (Sigma) and plated 20,000 cells/mL into Matrigel coated 96 well plates and treated with small molecule library (Torcris 1120 Biologically Active Compounds) at 2.5 μM final concentration for two weeks (FIG. 6A). Two weeks after treatment with small molecules, all wells were visually observed and scored based on neurite density and dopamine release. For measuring neurite density, cells were fixed with 4% paraformaldehyde and phase contrast images were acquired using Cellavista Cell Imaging System (Roche Applied Science) from randomly selected fields. Neurite density was measured using the Cellavista density software image processing program. Each experimental condition was done in duplicate wells, and at least three independent experiments were conducted to acquire the final results.
(§2) Conditioned medium from the top neurite inducers (Table 1) (wells containing the highest density of neurites compare to control 0.1% DMSO treated) were collected and analyzed using a dopamine ELISA assay (Cosmo Bio). Conditioned medium was collected from samples containing 50,000 cells per well and centrifuged at 3000 RPM to remove cell debris. Supernatant was then collected and analyzed for quantitative determination of dopamine using a commercial dopamine ELISA assay kit (CusaCosmo Bio). Data analysis was performed using the microtiter plate reader (BIO-TEK Synergy 2). The results presented are from three independent experiments (n=3) and represented as mean±standard error of mean (s.e.m.) and statistical analysis was performed using the two-tailed Student's t-test with a confidence level of 95% (α=0.05) with statistical significance of P<0.05. Additionally, total RNA from each well were collected and analyze by RT-PCR for expression of TuJ1, MAP2, TH, GRK2, EN1, DAT, AADC, PAX2, NURR1, PITX3 and LMX1B from hPSC-NSCs (Table 2). […] Analysis of the ELISA data indicated the top small molecule neurite inducers produced higher levels of dopamine than control non-treated cells (1.5 ng/mL). […] The percentages of TH positive cells produced by chemical treatment with Kenpaullone (33%), Guggulsterone (35%), Kynurenic Acid (19%), Immedthridine Dihydrobromide (21%), and Dimaprit Dihydrochloride (18%) were higher than 15% of TH positive cells obtained from hPSC-NSCs differentiated for ≥1 month using a standard dopaminergic differentiation medium (BDNF 20 ng/mL, GDNF 20 ng/mL, cAMP 200 μM, Abscorbic Acid 200 μM, TGFβ3 2 ng/mL and DAPT).

[2] = system: hPSC-NSCs; experiment: RT-PCR expression of dopamine neuron genes in hPSC-NSCs treated with small molecule hits; format: cell-based, human; conditions: Homo sapiens, Neuron, 336 h, hPSC-NSCs primed 7 days with Purmorphamine and FGF8, small molecule 2.5 μM for two weeks
Experimental: as §1, §2
Total RNA from at least triplicate samples with around 1 million cells each was isolated using either QIAsymphony automatic purification system or RNeasy Plus Mini kit, according to manufacturer's instructions (Qiagen). Total RNA was used for reverse transcription with the iScript cDNA synthesis kit (Biorad) and Px2 Thermal Cycler (Thermo Scientific). To analyze gene expression, PCR reactions were performed in duplicate using 1/25-th of the cDNA per reaction and the QuantiTect Primer Assay and Quantitest SYBR Green master mix (Qiagen). qPCR was performed using the Rotor-Gene Q (Qiagen) 5 min at 95° C., 5 s at 92° C., and 20 s at 60° C. for 37 cycles followed by melt to check the specificity of the amplicons from 50 to 99° C. raising by 1° C. each step. Relative quantification was performed against a standard curve and quantified values were normalized against the input determined by PPIG. The primers used for the analysis are listed in Supplementary Table S1. […]

O=C(O)c1cc(=O)c2ccccc2[nH]1 [Kynurenic acid]
percentage of TH positive cells [1]: 19%
fold induction at 2.5 µM ([2]; read-out: DDC (AADC) expression by RT-PCR): 37.5
fold induction at 2.5 µM ([2]; read-out: EN1 expression by RT-PCR): 9.25
fold induction at 2.5 µM ([2]; read-out: KCNJ6 expression by RT-PCR): 0.07
fold induction at 2.5 µM ([2]; read-out: LMX1B expression by RT-PCR): 6.36
fold induction at 2.5 µM ([2]; read-out: MAP2 expression by RT-PCR): 9.12
fold induction at 2.5 µM ([2]; read-out: NR4A2 (NURR1) expression by RT-PCR): 0.27
fold induction at 2.5 µM ([2]; read-out: Pax2 expression by RT-PCR): 1.16
fold induction at 2.5 µM ([2]; read-out: SLC6A3 (DAT) expression by RT-PCR): 3.41
fold induction at 2.5 µM ([2]; read-out: TH1 expression by RT-PCR): 16.8
fold induction at 2.5 µM ([2]; read-out: Tubb3 expression by RT-PCR): 6.43
